From US20260151367A1, “KIT TO PROMOTE DEVELOPMENTAL MYELINATION” (SOCIÉTÉ DES PRODUITS NESTLÉ S.A., priority 2022, published 2026)

What was measured:
[1] = tested on: myelin water fraction (MWF); experiment: Linear model of myelin versus nutrient intake, all ages included; format: in vivo, human; details: for association with myelin levels in age-adjusted models across age windows: all ages, linear model; for nutIntake*logAge estimate / nutIntake estimate: linear model across ages, Box Cox transformed MWF; for nutIntake*logAge estimate: coefficient of the intake x log age interaction term; for nutIntake estimate: coefficient of the nutrient intake term
Procedure: The inventors have investigated the developmental dynamics of nutrient-myelin interactions from infancy to early childhood, using myelin imaging as a marker for brain maturation. Brain neuroimaging and infant nutritional intake information were analyzed from 293 children from a longitudinal cohort study in the US. A sliding window approach was used to investigate the relationship between the nutrient intake and brain region myelination over a continuous set of age windows.
For inclusion in the analysis of the present study, 293 children between 6 months and 60 months of age were selected who met the following criteria: 1. Singleton full-term (>37 weeks) pregnancy; 2. Uncomplicated pregnancy (i.e., no reports of pre-eclampsia, gestational hypertension or gestation diabetes mellitus, GDM); 3. No reports of abnormalities on fetal ultrasound; 4. Infant 5 minute APGAR scores ≥8; 5. Infant birth weight greater than 1500 g; 6. No reported history of neurological trauma in the child; 7. No reported sibling or parental psychiatric history, including autism; and 8. No reports of major depressive disorder requiring medication in the mother during pregnancy or in the 6 months prior to becoming pregnant. In addition, children had to have a successful MRI scan and time-matched nutrition intake information for at least one 24-hour period within a week of the MRI.
From the acquired mcDESPOT data, the myelin water fraction (MWF) was calculated using a processing pipeline that includes linear alignment of the SPGR, IR-SPGR, and bSSFP images to account for subtle intra-scan head movement, non-parenchyma voxel removal, and correction of flip angle errors and off-resonance inhomogeneities using DESPOT1-HIFI and DESPOT2-FM. A 3-pool tissue model was fit to the multi-angle SPGR and bSSFP data to estimate the MWF, a surrogate and non-invasive measure of myelin content. The MWF images (maps) were then non-linearly aligned to a common analysis space in approximate MNI space using a previously described multi-step approach that first aligns the subject's high flip angle T1 weighted SPGR image to one of 14 age-specific templates and then to an overall study-specific template using non-linear 3D deformation, ANTS. The calculated transformation matrices are then applied to the quantitative MWF maps.
Nutrient intake data was collected through the Automated Self-Administered 24-hour dietary assessment tool (ASA-24). The average daily nutrient intake per scan age was calculated, resulting in 293 observations with 88 nutrients. Values for amino acids and phospholipids, including sphingomyelin, were retrieved from the relevant United States Department of Agriculture (USDA) databases. The USDA choline database contains the values of free choline, glycerophosphocholine, phosphocholine, phosphatidylcholine and sphingomyelin for about 630 foods. […] The oligosaccharides 3′SL and 6′SL are only found in milk products, values of 114 and 23 mg/100 g were used for their respective concentrations in cow's milk. For the estimation of oligofructose, the inventors based their calculations on Moshfegh et al. J. Nutr. 1999; 129(7 Suppl): 1407s-11s. We then mapped the foods reported in ASA-24 to the corresponding items in the USDA database and calculated the daily totals.
(§1) A linear model, like, was fitted to the dataset, all ages included, for each nutrient. Linear models with significant and positive coefficients for the nutrient intake terms were considered as indicative of a linear positive correlation with myelin. The myelin water fraction was Box Cox transformed to make it more symmetric. In addition, to account for possibly non-linear associations and for correlations between the nutrients, we performed a regression model using a random forest and used a feature selection algorithm for finding all relevant variables.

[2] = tested on: myelin water fraction (MWF); experiment: Random forest regression with feature selection for nutrients across ages; format: in vivo, human; details: listed in order of average importance after log Age
Text: as §1
FIG. 2 compares the values of the transformed MWF with the values predicted by the random forest, on a test set.

myelination = details: potentially via a reduction in sialylated binding targets for the myelin associated glycoprotein; cited from earlier work

With `CC(=O)N[C@H]1[C@H]([C@H](O)[C@H](O)CO)O[C@@](O[C@H]2[C@@H](O)[C@@H](CO)O[C@@H](O[C@H]3[C@H](O)[C@@H](O)C(O)O[C@@H]3CO)[C@@H]2O)(C(=O)O)C[C@@H]1O` (stereo partly shown) [3′SL, 3′-sialyllactose] the “association with myelin levels in age-adjusted models across age windows” value (from here on “association with myelin levels”) [1] was “linked with higher myelin levels”, the “nutIntake*logAge estimate” value [1] was 0.000 and the nutIntake estimate [1] was 0.002. The “variables selected by the random forest model, sorted by average importance” value (“variables selected” below) [2] was “selected by the random forest model”.

With `CC(=O)N[C@H]1[C@H]([C@H](O)[C@H](O)CO)O[C@@](OC[C@H]2O[C@@H](O[C@H]3[C@H](O)[C@@H](O)[C@H](O)O[C@@H]3CO)[C@H](O)[C@@H](O)[C@H]2O)(C(=O)O)C[C@@H]1O` [6′SL, 6′-sialyllactose] the “association with myelin levels” value [1] was “linked with higher myelin levels”, the “nutIntake*logAge estimate” value [1] was −0.001 and the nutIntake estimate [1] was 0.009. The “impact on myelination in a preclinical study” value (myelination) was “impact myelination”.

For `[Ca+2]` [Calcium], the “variables selected” value [2] was “selected by the random forest model”.

With `CC1=C(/C=C/C(C)=C/C=C/C(C)=C/C=C/C=C(C)/C=C/C=C(C)/C=C/C2=C(C)CCCC2(C)C)C(C)(C)CCC1` [Carotene, beta] the “variables selected” value [2] was “selected by the random forest model”.

For `CC[C@H](C)[C@H](N)C(=O)O` [Isoleucine], the “variables selected” value [2] was “selected by the random forest model”.

In the case of `NCCCC[C@H](N)C(=O)O` [Lysine], the “association with myelin levels” value [1] is reported as “linked with higher myelin levels”, the “nutIntake*logAge estimate” value [1] is reported as −0.005 and the nutIntake estimate [1] is reported as 0.033.

With `CSCC[C@H](N)C(=O)O` [Methionine] the “variables selected” value [2] was “selected by the random forest model”.

In the case of `[P]` [Phosphorus], the “variables selected” value [2] is reported as “selected by the random forest model”.

With `N[C@@H](CO)C(=O)O` [Serine] the “variables selected” value [2] was “selected by the random forest model”.

With “Octadecadienoic acid [Octadecadienoic (Linoleic, 18:2)]” the “variables selected” value [2] was “selected by the random forest model”.

With Phosphatidylcholine the “variables selected” value [2] was “selected by the random forest model”.

In the case of Phosphatidylinositol, the “variables selected” value [2] is reported as “selected by the random forest model”.

For Phosphatidylserine, the “variables selected” value [2] was “selected by the random forest model”.

For Sphingomyelin, the “variables selected” value [2] was “selected by the random forest model”.

B1: α-lactalbumin: whey protein of 123 amino acids and 4 disulfide bridges, molecular weight 14.2K Daltons (protein, UniProt P00711 20-142, looked up)
Alpha-lactalbumin: EQLTKCEVFRELKDLKGYGGVSLPEWVCTTFHTSGYDTQAIVQNNDSTEYGLFQINNKIWCKDDQNPHSSNICNISCDKFLDDDLTDDIMCVKKILDKVGINYWLAHKALCSEKLDQWLCEKL
In the case of B1, the “association with myelin levels” value [1] is reported as “linked with higher myelin levels”, the “nutIntake*logAge estimate” value [1] is reported as −0.014 and the nutIntake estimate [1] is reported as 0.097.
